Measured values reported in patent US20060069132A1, “Azolecarboxamide herbicides” (priority 2004, published 2006).

What was measured:
[1] = test system: barnyardgrass; test: Test B pre-/postemergence herbicide test; format: in vivo, Echinochloa crus-galli; conditions: for Plant response rating (0 to 100 scale), Barnyardgrass: 0 is no effect, preemergence; for Barnyardgrass plant response rating: postemergence
Method in brief: (§1)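 Evaluation is visual, comparing treated with control plants on a scale where 0 means no effect and 100 means full control. Treatments were preemergence, or postemergence on seedlings 2–18 cm tall, and held 13–15 days in the greenhouse.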

[2] = test system: Surinam grass; test: Test B pre-/postemergence herbicide test; format: in vivo, Urochloa decumbens; conditions: for Plant response rating (0 to 100 scale), Surinam Grass: 0 is no effect, 100 is complete control, preemergence; for Surinam Grass plant response rating: scale 0 (no effect) to 100 (complete control)
Method in brief: (§2)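 Test chemicals in a non-phytotoxic solvent mixture with surfactant were applied preemergence to seeded species and postemergence to plants 2-18 cm tall (1- to 4-leaf stage); rice and barnyardgrass were also tested in a flooded paddy at the 2-leaf stage. Visual rating versus controls after 13-15 days in greenhouse, scale 0 (no effect) to 100 (complete control).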

[3] = test system: cocklebur; test: Test B pre-/postemergence herbicide test; format: in vivo, Xanthium strumarium; conditions: for Plant response rating (0 to 100 scale), Cocklebur: 0 is no effect, preemergence; for Cocklebur plant response rating: postemergence
Method in brief: as §1

[4] = test system: corn; test: Test B pre-/postemergence herbicide test; format: in vivo, Zea mays; conditions: for Plant response rating (0 to 100 scale), Corn: 0 is no effect, preemergence; for Corn plant response rating: postemergence
Method in brief: as §2

[5] = test system: large crabgrass; test: Test B pre-/postemergence herbicide test; format: in vivo, Digitaria sanguinalis; conditions: for Plant response rating (0 to 100 scale), Crabgrass, Large: 0 is no effect, preemergence; for Crabgrass, Large plant response rating: postemergence
Method in brief: as §2

[6] = test system: giant foxtail; test: Test B pre-/postemergence herbicide test; format: in vivo, Setaria faberi; conditions: for Plant response rating (0 to 100 scale), Foxtail, Giant: 0 is no effect, preemergence; for Foxtail, Giant plant response rating: postemergence
Method in brief: as §2

[7] = test system: lambsquarters; test: Test B pre-/postemergence herbicide test; format: in vivo, Chenopodium album; conditions: for Plant response rating (0 to 100 scale), Lambsquarters: 0 is no effect, 100 is complete control, preemergence; for Lambsquarters plant response rating: scale 0 (no effect) to 100 (complete control)
Method in brief: as §2

[8] = test system: morningglory; test: Test B pre-/postemergence herbicide test; format: in vivo, Ipomoea coccinea; conditions: for Plant response rating (0 to 100 scale), Morningglory: 0 is no effect, 100 is complete control, preemergence; for Morningglory plant response rating: scale 0 (no effect) to 100 (complete control)
Method in brief: as §1

[9] = test system: pigweed; test: Test B pre-/postemergence herbicide test; format: in vivo, Amaranthus retroflexus; conditions: for Plant response rating (0 to 100 scale), Pigweed: 0 is no effect, 100 is complete control, preemergence; for Pigweed plant response rating: scale 0 (no effect) to 100 (complete control)
Method in brief: as §2

[10] = test system: velvetleaf; test: Test B pre-/postemergence herbicide test; format: in vivo, Abutilon theophrasti; conditions: for Plant response rating (0 to 100 scale), Velvetleaf: 0 is no effect, 100 is complete control, preemergence; for Velvetleaf plant response rating: scale 0 (no effect) to 100 (complete control)
Method in brief: as §2

[11] = test system: blackgrass; test: Test B postemergence herbicide test; format: in vivo, Alopecurus myosuroides; conditions: postemergence
Method in brief: (§3)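 Each value is a visual 0–100 response rating taken against controls 13 to 15 days after treatment in the greenhouse. Plants received formulated chemical postemergence at the 1- to 4-leaf stage or, in flooded paddy, at the 2-leaf stage.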

[12] = test system: wheat; test: Test B postemergence herbicide test; format: in vivo, Triticum aestivum; design: key to Wheat plant response rating: 0 = no effect, 100 = complete control
Method in brief: as §3

[13] = test system: wild oat; test: Test B postemergence herbicide test; format: in vivo, Avena fatua; conditions: scale 0 (no effect) to 100 (complete control)
Method in brief: as §3

[14] = test system: rice; test: Test B flooded paddy test; format: in vivo, Oryza sativa; conditions: 1000 g ai/ha, scale 0 to 100 (0 no effect, 100 complete control)
Method in brief: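 Paddy species grown to the 2-leaf stage under flooding; blackgrass sprayed postemergence at 2–18 cm (1- to 4-leaf stage). Plants kept in a greenhouse for 13 to 15 days, then visually rated against controls on 0 (no effect) to 100 (complete control).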

[15] = test system: small flower umbrella sedge; test: Test B flooded paddy test; format: in vivo, Cyperus difformis; conditions: 1000 g ai/ha, scale 0 to 100 (0 no effect, 100 complete control)
Method in brief: as §3

[16] = test system: ducksalad; test: Test B flooded paddy test; format: in vivo, Heteranthera limosa; conditions: 1000 g ai/ha, scale 0 to 100 (0 no effect, 100 complete control)
Method in brief: as §3

[17] = test system: barnyardgrass; test: Test B flooded paddy test; format: in vivo, Echinochloa crus-galli; conditions: 1000 g ai/ha, scale 0 to 100 (0 no effect, 100 complete control)
Method in brief: as §3

[18] = 125 g ai/ha, 100 is complete control
[19] = 125 g ai/ha, visual rating, scale 0 (no effect) to 100 (complete control)
[20] = 500 g ai/ha, scale 0 to 100, 0 is no effect, 100 is complete control
[21] = 125 g ai/ha, visual rating, postemergence
[22] = 125 g ai/ha, visual rating, scale 0 (no effect) to 100 (complete control), postemergence
[23] = 500 g ai/ha, scale 0 to 100, 0 no effect, 100 complete control, preemergence
[24] = Postemergence, 500 g ai/ha, scale 0 (no effect) to 100 (complete control)

## CCc1nn(C(C)(C)C)nc1C(=O)Nc1cc(C(=O)N2CCCCC2)ccc1F [Compound 381]
[1]; [18]
  Plant response rating (0 to 100 scale), Barnyardgrass: 10
[1]; [19]
  Barnyardgrass plant response rating: 0
[1]; [20]
  Barnyardgrass plant response rating: 0
[2]; 125 g ai/ha
  Plant response rating (0 to 100 scale), Surinam Grass: 20
[2]; [21]
  Surinam Grass plant response rating: 10
[2]; Postemergence, 500 g ai/ha
  Surinam Grass plant response rating: 40
[3]; [18]
  Plant response rating (0 to 100 scale), Cocklebur: 0
[3]; [19]
  Cocklebur plant response rating: 20
[3]; [20]
  Cocklebur plant response rating: 20
[4]; [18]
  Plant response rating (0 to 100 scale), Corn: 0
[4]; [19]
  Corn plant response rating: 0
[4]; [20]
  Corn plant response rating: 10
[5]; [18]
  Plant response rating (0 to 100 scale), Crabgrass, Large: 70
[5]; [19]
  Crabgrass, Large plant response rating: 10
[5]; [20]
  Crabgrass, Large plant response rating: 20
[6]; [18]
  Plant response rating (0 to 100 scale), Foxtail, Giant: 10
[6]; [19]
  Foxtail, Giant plant response rating: 10
[6]; [20]
  Foxtail, Giant plant response rating: 20
[7]; 125 g ai/ha
  Plant response rating (0 to 100 scale), Lambsquarters: 40
[7]; [21]
  Lambsquarters plant response rating: 70
[7]; Postemergence, 500 g ai/ha
  Lambsquarters plant response rating: 80
[8]; 125 g ai/ha
  Plant response rating (0 to 100 scale), Morningglory: 0
[8]; [21]
  Morningglory plant response rating: 20
[8]; Postemergence, 500 g ai/ha
  Morningglory plant response rating: 80
[9]; 125 g ai/ha
  Plant response rating (0 to 100 scale), Pigweed: 0
[9]; [21]
  Pigweed plant response rating: 20
[9]; Postemergence, 500 g ai/ha
  Pigweed plant response rating: 30
[10]; 125 g ai/ha
  Plant response rating (0 to 100 scale), Velvetleaf: 10
[10]; [21]
  Velvetleaf plant response rating: 10
[10]; Postemergence, 500 g ai/ha
  Velvetleaf plant response rating: 40
[11]; [19]
  Blackgrass plant response rating: 20
[11]; [20]
  Blackgrass plant response rating: 30
[12]; [22]
  Wheat plant response rating: 10
[12]; [23]
  Wheat plant response rating: 20
[12]; [24]
  Wheat plant response rating: 20
[13]; [21]
  Oat, Wild plant response rating: 10
[13]; Postemergence, 500 g ai/ha
  Oat, Wild plant response rating: 20
[14]
  Rice plant response rating: 60
[15]
  Sedge, Umbrella plant response rating: 70
[16]
  Ducksalad plant response rating: 70
[17]
  Barnyardgrass plant response rating: 10

## C=CCN(CC=C)C(=O)c1ccc(F)c(NC(=O)c2nn(C(C)(C)C)nc2CC)c1 [Compound 387]
[1]; [18]
  Plant response rating (0 to 100 scale), Barnyardgrass: 0
[1]; [19]
  Barnyardgrass plant response rating: 0
[1]; [20]
  Barnyardgrass plant response rating: 0
[2]; 125 g ai/ha
  Plant response rating (0 to 100 scale), Surinam Grass: 0
[2]; [21]
  Surinam Grass plant response rating: 0
[2]; Postemergence, 500 g ai/ha
  Surinam Grass plant response rating: 0
[3]; [18]
  Plant response rating (0 to 100 scale), Cocklebur: 0
[3]; [19]
  Cocklebur plant response rating: 0
[3]; [20]
  Cocklebur plant response rating: 20
[4]; [18]
  Plant response rating (0 to 100 scale), Corn: 0
[4]; [19]
  Corn plant response rating: 0
[4]; [20]
  Corn plant response rating: 0
[5]; [18]
  Plant response rating (0 to 100 scale), Crabgrass, Large: 0
[5]; [19]
  Crabgrass, Large plant response rating: 0
[5]; [20]
  Crabgrass, Large plant response rating: 0
[6]; [18]
  Plant response rating (0 to 100 scale), Foxtail, Giant: 0
[6]; [19]
  Foxtail, Giant plant response rating: 0
[6]; [20]
  Foxtail, Giant plant response rating: 20
[7]; 125 g ai/ha
  Plant response rating (0 to 100 scale), Lambsquarters: 0
[7]; [21]
  Lambsquarters plant response rating: 20
[7]; Postemergence, 500 g ai/ha
  Lambsquarters plant response rating: 20
[8]; 125 g ai/ha
  Plant response rating (0 to 100 scale), Morningglory: 0
[8]; [21]
  Morningglory plant response rating: 0
[8]; Postemergence, 500 g ai/ha
  Morningglory plant response rating: 10
[9]; 125 g ai/ha
  Plant response rating (0 to 100 scale), Pigweed: 0
[9]; [21]
  Pigweed plant response rating: 20
[9]; Postemergence, 500 g ai/ha
  Pigweed plant response rating: 40
[10]; 125 g ai/ha
  Plant response rating (0 to 100 scale), Velvetleaf: 0
[10]; [21]
  Velvetleaf plant response rating: 0
[10]; Postemergence, 500 g ai/ha
  Velvetleaf plant response rating: 10
[11]; [19]
  Blackgrass plant response rating: 0
[11]; [20]
  Blackgrass plant response rating: 20
[12]; [22]
  Wheat plant response rating: 0
[12]; [23]
  Wheat plant response rating: 0
[12]; [24]
  Wheat plant response rating: 10
[13]; [21]
  Oat, Wild plant response rating: 0
[13]; Postemergence, 500 g ai/ha
  Oat, Wild plant response rating: 30
[14]
  Rice plant response rating: 0
[15]
  Sedge, Umbrella plant response rating: 0
[16]
  Ducksalad plant response rating: 0
[17]
  Barnyardgrass plant response rating: 0
